Molecular target: T1, AXL (human catalytic domain) (Homo sapiens, UniProt P30530)
T1 construct: purchased Upstate Ltd. 14-512
T1 sequence (P30530 473-894): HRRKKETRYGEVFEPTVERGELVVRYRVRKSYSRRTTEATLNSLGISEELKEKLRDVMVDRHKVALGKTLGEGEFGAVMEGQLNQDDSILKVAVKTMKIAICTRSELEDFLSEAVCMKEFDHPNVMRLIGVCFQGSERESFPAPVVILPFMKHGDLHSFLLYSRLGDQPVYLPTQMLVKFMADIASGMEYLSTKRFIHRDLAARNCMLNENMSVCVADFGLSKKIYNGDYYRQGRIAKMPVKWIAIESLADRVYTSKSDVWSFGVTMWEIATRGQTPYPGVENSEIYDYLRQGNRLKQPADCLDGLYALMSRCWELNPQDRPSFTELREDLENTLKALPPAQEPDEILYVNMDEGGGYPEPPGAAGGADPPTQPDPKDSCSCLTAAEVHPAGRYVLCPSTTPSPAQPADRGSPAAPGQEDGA
Assay: AXL (human catalytic domain) Enzyme Activity Assay (IMAP fluorescence polarisation)
Assay type: biochemical
Outline: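 Recombinant human AXL isoform 1 (aa473-894; final 15 nM) phosphorylated 100 nM fluorescein-CSK-tide with 150 μM ATP (KM) in HEPES pH 7.0/MgCl2/DTT buffer for 60 min at room temperature. IMAP fluorescence polarisation read after overnight binding; IC50 from 10-point 4-parameter logistic fits.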

[1] = first data set, recombinant AXL isoform 1 aa473-894, 150 μM ATP
[2] = further data set (WW-001 through WW-169, XX-001 through XX-469, YY-001 through YY-016, ZZ-001 through ZZ-003), 150 μM ATP

## c1cc(-c2ccc3occc3c2)n2nc(Nc3ccc(OCCN4CCCC4)cc3)nc2c1 [XX-020]
[1]
  IC50: < 1 µM
[2]
  IC50: ≤ 0.1 µM

## CC(C)NC(=O)Cn1cc(-c2cccc3nc(Nc4ccc(OCCN5CCCC5)cc4)nn23)cn1 [XX-434]
[2]
  IC50: 1 to 10 µM

## Cc1ccc(-c2cccc3nc(NC(=O)C4CC4)nn23)s1 [WW-055]
[1]
  IC50: 1 to 10 µM
[2]
  IC50: 1 to 10 µM

## O=C(Nc1ccc(-c2cccc3nc(Nc4ccc(OCCN5CCCC5)cc4)nn23)cc1)c1ccncc1 [XX-249]
[2]
  IC50: 0.1 to 1 µM

## c1ccc2oc(-c3cccc4nc(Nc5ccc(OCCN6CCCC6)cc5)nn34)cc2c1 [XX-293]
[2]
  IC50: 0.1 to 1 µM

## O=C(Nc1nc2cccc(-c3ccc4c(c3)OCO4)n2n1)C1CC1 [WW-049]
[1]
  IC50: < 1 µM
[2]
  IC50: 0.1 to 1 µM

## Cn1nc(COc2cccc(-c3cccc4nc(Nc5ccc(OCCN6CCCC6)cc5)nn34)c2)cc1-c1ccccc1 [XX-459]
[2]
  IC50: 1 to 10 µM

## FC(F)(F)c1ccc(CNc2cccc(-c3cccc4nc(Nc5ccc(OCCN6CCCC6)cc5)nn34)c2)o1 [XX-448]
[2]
  IC50: 0.1 to 1 µM

## Cc1cc(COc2cccc(-c3cccc4nc(Nc5ccc(OCCN6CCCC6)cc5)nn34)c2)nn1C [XX-460]
[2]
  IC50: 0.1 to 1 µM

## O=C(Nc1cccc(Cl)c1)Nc1cccc(-c2cccc3nc(Nc4ccc(OCCN5CCCC5)cc4)nn23)c1 [XX-176]
[2]
  IC50: 0.1 to 1 µM

## COc1ccc(-c2cccc3nc(Nc4ccc(N(C)C(=O)C(C)N5CCCC5)cc4)nn23)cc1 (stereo not shown) [XX-355]
[2]
  IC50: 0.1 to 1 µM

## COc1ccc(-c2cccc3nc(Nc4cccc(C(C)=O)c4)nn23)cc1 [XX-008]
[2]
  IC50: 0.1 to 1 µM

## C#CCn1cc(-c2cccc3nc(Nc4ccc(OCCN5CCCC5)cc4)nn23)cn1 [XX-302]
[2]
  IC50: 0.1 to 1 µM

## c1ccc2sc(-c3cccc4nc(Nc5ccc(OCCN6CCCC6)cc5)nn34)cc2c1 [XX-294]
[2]
  IC50: 0.1 to 1 µM

## FC1(F)CCN(CCOc2ccc(Nc3nc4cccc(-c5ccc6c(c5)OCCO6)n4n3)cc2)C1 [XX-158]
[2]
  IC50: 1 to 10 µM

## CN(C)C/C=C/c1cccc(Nc2nc3cccc(-c4ccc5c(c4)OCCO5)n3n2)c1 [XX-083]
[1]
  IC50: < 1 µM
[2]
  IC50: ≤ 0.1 µM

## O=C(Nc1nc2cccc(-c3cn[nH]c3)n2n1)C1CC1 [WW-060, cyclopropanecarboxylic acid [5-(1H-pyrazol-4-yl)-[1,2,4]triazolo[1,5-a]pyridin-2-yl]-amide]
[1]
  IC50: 1 to 10 µM
[2]
  IC50: 1 to 10 µM

## Nc1cccc(-c2cccc3nc(Nc4ccc(OCCN5CCCC5)cc4)nn23)c1 [XX-255, [5-(3-Amino-phenyl)-[1,2,4]triazolo[1,5-a]pyridin-2-yl]-[4-(2-pyrrolidin-1-yl-ethoxy)-phenyl]-amine]
[2]
  IC50: 0.1 to 1 µM

## O=C(Nc1nc2cccc(-c3ccc(-n4cccn4)cc3)n2n1)C1CC1 [WW-109]
[1]
  IC50: 1 to 10 µM
[2]
  IC50: 1 to 10 µM

## Cn1nccc1-c1ccc(-c2cccc3nc(Nc4ccc(OCCN5CCCC5)cc4)nn23)cc1 [XX-189]
[2]
  IC50: 0.1 to 1 µM

## CCN(CC)CCOc1ccc(Nc2nc3cccc(-c4ccc(OC)cc4)n3n2)cc1Cl [XX-417]
[2]
  IC50: 0.1 to 1 µM

## COc1cc(Nc2nc3cccc(-c4ccc5c(c4)OCCO5)n3n2)ccc1OCCN(C)C [XX-112]
[2]
  IC50: 0.1 to 1 µM

## OCCn1cc(-c2cccc3nc(Nc4ccc(OCCN5CCCC5)cc4)nn23)cn1 [XX-307, 2-(4-{2-[4-(2-Pyrrolidin-1-yl-ethoxy)-phenylamino]-[1,2,4]triazolo[1,5-a]pyridin-5-yl}-pyrazol-1-yl)-ethanol]
[2]
  IC50: 0.1 to 1 µM

## O=C(Nc1cccc(-c2cccc3nc(Nc4ccc(OCCN5CCCC5)cc4)nn23)c1)c1ccno1 [XX-192]
[2]
  IC50: 0.1 to 1 µM

## c1ccc(CNc2cccc(-c3cccc4nc(Nc5ccc(OCCN6CCCC6)cc5)nn34)c2)cc1 [XX-398]
[2]
  IC50: 0.1 to 1 µM

## COc1ncccc1-c1cccc2nc(Nc3ccc(OCCN4CCCC4)cc3)nn12 [XX-200]
[2]
  IC50: 1 to 10 µM

## CCN(CC)CCOc1cccc(Nc2nc3cccc(-c4ccc(N(C)C)c(C)c4)n3n2)c1 [XX-147]
[2]
  IC50: 0.1 to 1 µM

## Clc1ccc(Cn2cc(-c3cccc4nc(Nc5ccc(OCCN6CCCC6)cc5)nn34)cn2)cc1 [XX-304]
[2]
  IC50: ≤ 0.1 µM

## c1ccc(Cn2cc(-c3cccc4nc(Nc5ccc(OCCN6CCCC6)cc5)nn34)cn2)cc1 [XX-193, [5-(1-Benzyl-1H-pyrazol-4-yl)-[1,2,4]triazolo[1,5-a]pyridin-2-yl]-[4-(2-pyrrolidin-1-yl-ethoxy)-phenyl]-amine]
[2]
  IC50: 0.1 to 1 µM

## Cc1csc(-c2cccc3nc(NC(=O)C4CC4)nn23)c1 [WW-058]
[1]
  IC50: 1 to 10 µM
[2]
  IC50: 1 to 10 µM

## CN1CCN(CCC(=O)Nc2nc3cccc(-c4ccc5c(c4)OCCO5)n3n2)CC1 [WW-169]
[2]
  IC50: 1 to 10 µM

## COc1ccc(-c2cccc3nc(Nc4ccc(OCCN5CCOCC5)cc4)nn23)cc1 [XX-005]
[1]
  IC50: < 1 µM
[2]
  IC50: ≤ 0.1 µM

## Cc1ncsc1CNc1cccc(-c2cccc3nc(Nc4ccc(OCCN5CCCC5)cc4)nn23)c1 [XX-394]
[2]
  IC50: ≤ 0.1 µM

## O=C(Nc1nc2cccc(-c3ccc(Oc4ccccc4)cc3)n2n1)C1CC1 [WW-162]
[1]
  IC50: 1 to 10 µM
[2]
  IC50: 1 to 10 µM

## O=C(Nc1ccc(-c2cccc3nc(Nc4ccc(OCCN5CCCC5)cc4)nn23)cc1)c1ccno1 [XX-250]
[2]
  IC50: 0.1 to 1 µM

## COc1ccc(-c2cccc3nc(Nc4ccc(OCCCN5C(=O)c6ccccc6C5=O)cc4)nn23)cc1 [XX-039, 2-(3-{4-[5-(4-methoxy-phenyl)-[1,2,4]triazolo[1,5-a]pyridin-2-ylamino]-phenoxy}-propyl)-isoindole-1,3-dione]
[2]
  IC50: 0.1 to 1 µM

## O=C(Nc1nc2cccc(NCCc3c[nH]c4ccccc34)n2n1)C1CC1 [WW-077]
[1]
  IC50: 1 to 10 µM
[2]
  IC50: 1 to 10 µM

## c1cc(-c2ccc3c(c2)OCCO3)n2nc(Nc3ccc(OCCN4CCCCC4)nc3)nc2c1 [XX-106]
[2]
  IC50: 0.1 to 1 µM

## c1ccc(Cn2cc(-c3nccc4nc(Nc5ccc(OCCN6CCCC6)cc5)nn34)cn2)cc1 [YY-011, [5-(1-Benzyl-1H-pyrazol-4-yl)-[1,2,4]triazolo[1,5-c]pyrimidin-2-yl]-[4-(2-pyrrolidin-1-yl-ethoxy)-phenyl]-amine]
[2]
  IC50: 0.1 to 1 µM

## Cc1cccc(S(=O)(=O)NCc2cccc(-c3cccc4nc(Nc5ccc(OCCN6CCCC6)cc5)nn34)c2)c1 [XX-370]
[2]
  IC50: 0.1 to 1 µM

## CN(C)CCNC(=O)c1cccc(Nc2nc3cccc(-c4ccc5c(c4)OCCO5)n3n2)c1 [XX-080]
[1]
  IC50: < 1 µM
[2]
  IC50: ≤ 0.1 µM

## O=C(Nc1nc2cccc(-c3cnc4ccccc4c3)n2n1)C1CC1 [WW-085]
[1]
  IC50: 1 to 10 µM
[2]
  IC50: 1 to 10 µM

## c1cc(NCCCN2CCCCC2)cc(Nc2nc3cccc(-c4ccc5c(c4)OCCO5)n3n2)c1 [XX-131]
[2]
  IC50: ≤ 0.1 µM

## CCN(CC)CCOc1cc(Nc2nc3cccc(-c4ccc(OC)cc4)n3n2)ccc1C [XX-415]
[2]
  IC50: 0.1 to 1 µM

## c1cc(Nc2nc3cccc(-c4ccc5c(c4)OCCO5)n3n2)cc(OCCN2CCCC2)c1 [XX-100]
[2]
  IC50: 0.1 to 1 µM

## Cc1cccc(S(=O)(=O)n2cc(-c3cccc4nc(Nc5ccc(OCCN6CCCC6)cc5)nn34)cn2)c1 [XX-377]
[2]
  IC50: 0.1 to 1 µM

## COc1cccc(NC(=O)Nc2cccc(-c3cccc4nc(Nc5ccc(OCCN6CCCC6)cc5)nn34)c2)c1 [XX-230]
[2]
  IC50: 1 to 10 µM

## O=C(CCN1CCCCC1)Nc1cccc(Nc2nc3cccc(-c4ccc5c(c4)OCCO5)n3n2)c1 [XX-125]
[2]
  IC50: 0.1 to 1 µM

## FC(F)(F)Oc1cccc(Cn2cc(-c3cccc4nc(Nc5ccc(OCCN6CCCC6)cc5)nn34)cn2)c1 [XX-366]
[2]
  IC50: 0.1 to 1 µM

## COc1ccc(-c2cccc3nc(Nc4cccc(OCCCN)c4)nn23)cc1 [XX-045]
[1]
  IC50: < 1 µM
[2]
  IC50: 0.1 to 1 µM

## CCN(CC)CCOc1cc(Nc2nc3cccc(-c4ccc(OC)c(F)c4)n3n2)ccn1 [XX-359]
[2]
  IC50: ≤ 0.1 µM

## O=C(Nc1nc2cccc(Nc3cccc(Cl)c3)n2n1)C1CC1 [WW-129]
[1]
  IC50: 1 to 10 µM
[2]
  IC50: 1 to 10 µM

## c1cc(-c2cnn(CCN3CCOCC3)c2)n2nc(Nc3ccc(OCCN4CCCC4)cc3)nc2c1 [XX-272]
[2]
  IC50: 1 to 10 µM

## COc1cccc(COc2cccc(-c3cccc4nc(Nc5ccc(OCCN6CCCC6)cc5)nn34)c2)c1 [XX-335]
[2]
  IC50: 0.1 to 1 µM

## CC[C@H](C)Cn1cc(-c2cccc3nc(Nc4ccc(OCCN5CCCC5)cc4)nn23)cn1 [XX-320]
[2]
  IC50: ≤ 0.1 µM

## c1coc(CSCCn2cc(-c3cccc4nc(Nc5ccc(OCCN6CCCC6)cc5)nn34)cn2)c1 [XX-427]
[2]
  IC50: 0.1 to 1 µM

## COc1ccccc1COc1cccc(-c2cccc3nc(Nc4ccc(OCCN5CCCC5)cc4)nn23)c1 [XX-338]
[2]
  IC50: 1 to 10 µM

## COc1cccc(-c2cccc3nc(Nc4ccc(OCCN5CCCC5)cc4)nn23)c1 [XX-150]
[2]
  IC50: 1 to 10 µM

## CC(C(=O)Nc1ccc(Nc2nc3cccc(-c4ccc5c(c4)OCCO5)n3n2)cc1)N1CCCC1 (stereo not shown) [XX-135]
[2]
  IC50: 0.1 to 1 µM

## O=C(Nc1nc2cccc(-c3ccc(O)c(F)c3)n2n1)C1CC1 [WW-096]
[1]
  IC50: < 1 µM
[2]
  IC50: 0.1 to 1 µM

## CCCCCS(=O)(=O)n1cc(-c2cccc3nc(Nc4ccc(OCCN5CCCC5)cc4)nn23)cn1 [XX-384]
[2]
  IC50: 0.1 to 1 µM

## CCN(CC)CCNc1cccc(Nc2nc3cccc(-c4ccc5c(c4)OCCO5)n3n2)c1 [XX-128]
[2]
  IC50: 0.1 to 1 µM

## CC(CN)Oc1ccc(Nc2nc3cccc(-c4ccc5c(c4)OCCO5)n3n2)cc1 (stereo not shown) [XX-118]
[2]
  IC50: ≤ 0.1 µM

## COc1cccc(CS(=O)(=O)n2cc(-c3cccc4nc(Nc5ccc(OCCN6CCCC6)cc5)nn34)cn2)c1 [XX-289]
[2]
  IC50: 0.1 to 1 µM
